SMILES strings stand for the structures.

We go through 2 compounds from patent publication US10596127B2, “Composition for reducing the frequency of urination, method of making and use thereof” (WELLESLEY PHARMACEUTICALS, LLC, priority 2013, dated 2020).

Holding throughout (assay type): cell-based
Assay [1] concerns IL-6 secretion by normal human bladder smooth muscle cells. Put plainly: IL-6 ELISA of normal human bladder smooth muscle cell supernatants. Particulars: for IL-6 (pg/ml) Subject 1 / IL-6 (pg/ml) Subject 2: Carbachol 10^−3 M plus analgesic 50 μM; for IL-6 (pg/ml) Subject 1: carbachol alone 232, unstimulated <5, mean of duplicates; for IL-6 (pg/ml) Subject 2: carbachol alone 278, unstimulated <5; for effect on the effect of carbachol and LPS on IL-6 responses: LPS-induced responses: analgesic at either 5 μM or 50 μM. How it is done:
(§1) Culture supernatants were subjected to cytokine-specific ELISA to determine IL-1β, IL-6 and TNF-α responses in cultures of macrophages treated with analgesic, LPS alone or a combination of LPS and analgesic. The assays were performed on Nunc MaxiSorp Immunoplates (Nunc) coated overnight with 100 μl of anti-mouse IL-6, TNF-α mAbs (BD Biosciences) or IL-1β mAb (R&D Systems) in 0.1 M sodium bicarbonate buffer (pH 9.5). After two washes with PBS (200 μl per well), 200 μl of PBS 3% BSA were added in each well (blocking) and the plates incubated for 2 hours at room temperature. Plates were washed again two times by addition of 200 μl per well, 100 μl of cytokine standards and serial dilutions of culture supernatants were added in duplicate and the plates were incubated overnight at 4° C. Finally, the plates were washed twice and incubated with 100 μl of secondary biotinylated anti-mouse IL-6, TNFα mAbs (BD Biosciences) or IL-1β (R&D Systems) followed by peroxidase-labelled goat anti-biotin mAb (Vector Laboratories). The colorimetric reaction was developed by the addition of 2,2′-azino-bis(3)-ethylbenzylthiazoline-6-sulfonic acid (ABTS) substrate and H2O2 (Sigma) and the absorbance measured at 415 nm with a Victor® V multilabel plate reader (PerkinElmer).
(§2) Normal human bladder smooth muscle cells were isolated by enzymatic digestion from macroscopically normal pieces of human bladder. Cells were expended in vitro by culture at 37° C. in a 5% CO2 atmosphere in RPMI 1640 supplemented with 10% fetal bovine serum, 15 mM HEPES, 2 mM L-glutamine, 100 U/ml penicillin, and […] of streptomycin and passage once a week by treatment with trypsin to detach cells followed by reseeding in a new culture flask. The first week of culture, the culture medium was supplemented with 0.5 ng/ml epidermal growth factor, 2 ng/ml fibroblast growth factor, and 5 μg/ml insulin.
(§3) Bladder smooth muscle cells trypsinized and seeded in microculture plates at a cell density of 3×10^4 cells per well in 100 μl were treated with analgesic solutions (50 μl/well) either alone or together carbachol (10-Molar, 50 μl/well), as an example of non-inflammatory stimuli, or lipopolysaccharide (LPS) of Salmonella typhimurium (1 μg/ml, 50 μl/well), as an example of […] stimuli. When no other effectors were added to the cells, 50 μl of RPMI 1640 without fetal bovine serum were added to the wells to adjust the final volume to 200 μl.
(§4) After 24 hours of culture, 150 μl of culture supernatants were collected, spun down for 2 min at 8,000 rpm at 4° C. to remove cells and debris and stored at −70° C. for analysis of Prostaglandin E2 (PGE2) responses by ELISA. Cells were fixed, permeabilized and blocked for detection of COX2 using a fluorogenic substrate. In selected experiment cells were stimulated 12 hours in vitro for analysis of COX2, PGE2 and cytokine responses.
(§5) COX2 and PGE2 responses were analyzed as described in Example 3. Cytokine responses were analyzed as described in Example 2.

In assay [2] the test system is TNFα secretion by normal human bladder smooth muscle cells. Put plainly: TNFα ELISA of normal human bladder smooth muscle cell supernatants. Particulars: for TNFα (pg/ml) Subject 2 / TNFα (pg/ml) Subject 1: Carbachol 10^−3 M plus analgesic 50 μM; for TNFα (pg/ml) Subject 2: carbachol alone 286, unstimulated <5; for TNFα (pg/ml) Subject 1: carbachol alone 350, unstimulated <5, mean of duplicates; for effect on the effect of carbachol and LPS on TNFα responses: LPS-induced responses: analgesic at either 5 μM or 50 μM. As to the method: as §1, §2, §3, §4, §5

The subject of assay [3] is PGE2 secretion by normal human bladder smooth muscle cells. The assay can be described thus: PGE2 ELISA of normal human bladder smooth muscle cell supernatants. Particulars: for PGE2 levels (pg/ml) Subject 1: mean of duplicates; for effect on the LPS-induced PGE2 responses: analgesic at either 5 μM or 50 μM. As to the method: Prostaglandin E2 responses were analyzed by a sequential competitive ELISA (R&D Systems). More specifically, culture supernatants or PGE2 standards were added to the wells of a 96-well polystyrene microplate coated with a goat anti-mouse polyclonal antibody. After one hour incubation on a microplate shaker, an HRP-conjugated PGE2 was added and plates incubated for an additional two hours at room temperature. The plates were then washed and HRP substrate solution added to each well. The color was allowed to develop for 30 min and the reaction stopped by addition sulfuric acid before reading the plate at 450 nm with wavelength correction at 570 nm. Results are expressed as mean pg/ml of PGE2.
as §2
[…] When no other effectors were added to the cells, 50 μl of RPMI 1640 without fetal bovine serum were added to the wells to adjust the final volume to 200 μl.
as §4, §5

Assay [4] deals with TNFα secretion by normal human bladder smooth muscle cells. The assay can be described thus: TNFα ELISA of normal human bladder smooth muscle cell supernatants. Particulars: for TNFα (pg/ml) Subject 2: LPS alone 4107; for TNFα (pg/ml) Subject 1: LPS alone 5725, mean of duplicates.
Assay [5] deals with IL-6 secretion by normal human bladder smooth muscle cells. The assay can be described thus: IL-6 ELISA of normal human bladder smooth muscle cell supernatants. Particulars: for IL-6 (pg/ml) Subject 2: LPS alone 4383; for IL-6 (pg/ml) Subject 1: LPS alone 4838, mean of duplicates.
Assay [6] concerns PGE2 secretion by mouse bladder cells. Put plainly: PGE2 ELISA of mouse bladder cell culture supernatants. Particulars: for PGE2 levels: LPS alone 925 ± 55, unstimulated <20.5; for effect on the effect of LPS on PGE2 secretion: LPS (1 μg/ml), analgesic 5 or 50 μM. As to the method: Bladder cells were removed from euthanized animals C57BL/6 mice (8-12 weeks old) and cells were isolated by enzymatic digestion followed by purification on a Percoll gradient. […] Bladder slurries were enzymatically digested for 30 minutes at 37° C. Undigested fragments were further dispersed through a cell-trainer. The cell suspension was pelleted and added to a discontinue 20%, 40% and 75% Percoll gradient for purification on mononuclear cells. Each experiment used 50-60 bladders. […] Cells were cultured at 37° C. in a 5% CO2 atmosphere. Bladder cells were treated with analgesic solutions (50 well) either alone or together with carbachol (10-Molar, 50 μl/well), as an example of non-inflammatory stimuli, or lipopolysaccharide (LPS) of Salmonella typhimurium (1 μg/ml, 50 μl/well), as an example of […] stimuli. […] Cells were fixed, permeabilized and blocked for detection of Cyclooxygenase-2 (COX2) using a fluorogenic substrate. In selected experiment cells were stimulated 12 hours in vitro for analysis of COX2 responses […] More specifically, culture supernatants or PGE2 standards were added to the wells of a 96-well polystyrene microplate coated with a goat anti-mouse polyclonal antibody. After one hour incubation on a microplate shaker, an HRP-conjugated PGE2 was added and plates incubated for an additional two hours at room temperature. The plates were then washed and HRP substrate solution added to each well. The color was allowed to develop for 30 min and the reaction stopped by addition sulfuric acid before reading the plate at 450 nm with wavelength correction at 570 nm. Results are expressed as mean pg/ml of PGE2.

The mark [7] stands for this setting: Carbachol 10^−3 M plus analgesic 50 μM, carbachol alone 104, unstimulated <20.5.
The mark [8] stands for this setting: Carbachol 10^−3 M plus analgesic 50 μM, carbachol alone 129, unstimulated <20.5.
[9] abbreviates: LPS (10 μg/ml) plus analgesic 5 μM, LPS alone 998.
Setting [10] is: LPS (10 μg/ml) plus analgesic 5 μM, LPS alone 1125.
[11] abbreviates: LPS (10 μg/ml) plus analgesic 50 μM, LPS alone 998.
The mark [12] stands for this setting: LPS (10 μg/ml) plus analgesic 50 μM, LPS alone 1125.
[13] abbreviates: LPS (10 μg/ml) plus analgesic 5 μM.
Setting [14] is: LPS (10 μg/ml) plus analgesic 50 μM.
Where [15] appears, read: LPS (1 μg/ml) plus analgesic 5 μM.
The mark [16] stands for this setting: LPS (1 μg/ml) plus analgesic 50 μM.

As to `CC(=O)Nc1ccc(O)cc1` [Acetaminophen, N-acetyl-para-aminophenol], the “IL-6 (pg/ml) Subject 1” value was 119 pg/mL in assay [1], 2012 pg/mL in assay [5] (setting [13]) and 2018 pg/mL in assay [5] (setting [14]). The “IL-6 (pg/ml) Subject 2” value in assay [1] is 135 pg/mL; in assay [5] (setting [13]) it was 2308 pg/mL; in assay [5] (setting [14]), 1983 pg/mL. Also, in assay [1], the “effect on the effect of carbachol and LPS on IL-6 responses” value is given as “suppress”. The entries for the “TNFα (pg/ml) Subject 2” value in assay [2], in assay [4] (setting [13]) and in assay [4] (setting [14]) were 164 pg/mL, 2267 pg/mL and 2056 pg/mL, respectively. The “TNFα (pg/ml) Subject 1” value was determined as 138 pg/mL in assay [2], 2338 pg/mL in assay [4] (setting [13]) and 2184 pg/mL in assay [4] (setting [14]). Further, the “effect on the effect of carbachol and LPS on TNFα responses” value in assay [2] is listed as “suppress”. The “PGE2 levels (pg/ml) Subject 2” value in assay [3] (setting [7]) came out at 62 pg/mL; in assay [3] (setting [9]), 542 pg/mL; in assay [3] (setting [11]), 540 pg/mL. The “PGE2 levels (pg/ml) Subject 1” value in assay [3] (setting [8]) is 76 pg/mL; in assay [3] (setting [10]), 817 pg/mL; in assay [3] (setting [12]), 803 pg/mL. Besides, the “effect on the LPS-induced PGE2 responses” value in assay [3] is “suppress”. For the same compound, the “PGE2 levels” value amounted to 619 ± 32 pg/mL in assay [6] (setting [15]) and 600 ± 45 pg/mL in assay [6] (setting [16]). Further, in assay [6], the “effect on the effect of LPS on PGE2 secretion” value is “suppressed”.
For the compound `CC(C)Cc1ccc(C(C)C(=O)O)cc1` (stereo not drawn) [Ibuprofen, ibuprofen], the figures for the “IL-6 (pg/ml) Subject 1” value in assay [1], in assay [5] (setting [13]) and in assay [5] (setting [14]) were 107 pg/mL, 2063 pg/mL and 2021 pg/mL, respectively. The figures for the “IL-6 (pg/ml) Subject 2” value in assay [1], in assay [5] (setting [13]) and in assay [5] (setting [14]) were 118 pg/mL, 2173 pg/mL and 1991 pg/mL, respectively. In addition, the “effect on the effect of carbachol and LPS on IL-6 responses” value in assay [1] is listed as “suppress”. The “TNFα (pg/ml) Subject 2” value is 121 pg/mL in assay [2], 2288 pg/mL in assay [4] (setting [13]) and 1997 pg/mL in assay [4] (setting [14]). The “TNFα (pg/ml) Subject 1” value in assay [2] is 146 pg/mL; in assay [4] (setting [13]) it was 2733 pg/mL; in assay [4] (setting [14]), 2603 pg/mL. The “effect on the effect of carbachol and LPS on TNFα responses” value in assay [2] is “suppress”. The “PGE2 levels (pg/ml) Subject 2” value in assay [3] (setting [7]) came out at 73 pg/mL; in assay [3] (setting [9]), 527 pg/mL; in assay [3] (setting [11]), 501 pg/mL. Besides, the “PGE2 levels (pg/ml) Subject 1” value in assay [3] (setting [8]) came out at 84 pg/mL; in assay [3] (setting [10]), 824 pg/mL; in assay [3] (setting [12]), 821 pg/mL. In addition, the “effect on the LPS-induced PGE2 responses” value in assay [3] is listed as “suppress”. The “PGE2 levels” value in assay [6] (setting [15]) was 593 ± 46 pg/mL; in assay [6] (setting [16]) it was 568 ± 32 pg/mL. Besides, in assay [6], the “effect on the effect of LPS on PGE2 secretion” value is listed as “suppressed”.
